This passage reports IC50 cell viability results from the supplement of paper PMC12325586.

In the assay the test system is MIA PaCa-2.
[1] abbreviates: OFD1 knockdown: no (no doxycycline).
Where [2] appears, read: OFD1 knockdown: yes (Tet-on shOFD1, 100 ng/mL doxycycline).

Consider `C[C@]12CCC(=O)C(O)=C1CC[C@@H]1[C@@H]2CC[C@]2(C)C(=O)CC[C@@H]12` [S2208], for which the IC50 cell viability by setting is: under setting [1], 11 µM; under setting [2], 10.4 µM.

Turning to `FC(F)(F)c1ccc(/C=C/c2nc(COc3ccc(CCCCn4ccnn4)cc3)co2)cc1` [S2216], the IC50 cell viability runs as follows: under setting [1], 41.1 µM; under setting [2], 37.6 µM.

On to `CCc1c2c(nc3ccc(OC(=O)N4CCC(N5CCCCC5)CC4)cc13)-c1cc3c(c(=O)n1C2)COC(=O)[C@]3(O)CC` [S2217], for which the IC50 cell viability amounted to 43.2 µM under setting [1] and 47.2 µM under setting [2].

Take `CC[C@H](Nc1ncnc2[nH]cnc12)c1nc2cccc(F)c2c(=O)n1-c1ccccc1` [S2226]: the IC50 cell viability turned out to be 22.7 µM under setting [1] and 24.4 µM under setting [2].

`Cc1cccc(-c2nn3c(c2-c2ccnc4ccc(C(N)=O)cc24)CCC3)n1` [S2230] had an IC50 cell viability under setting [1] of 3.61 µM and an IC50 cell viability under setting [2] of 3.02 µM.

`CC[C@@H]1C(=O)N(C)c2cnc(Nc3ccc(C(=O)N[C@H]4CC[C@H](N5CCN(CC6CC6)CC5)CC4)cc3OC)nc2N1C(C)C` [S2235]: the IC50 cell viability by setting is: under setting [1], 13.3 µM; under setting [2], 12.1 µM.

For `O=C(O)c1ccc2c(c1)nc(Nc1cccc(Cl)c1)c1ccncc12` [S2248], the IC50 cell viability came to 4.02 µM under setting [1] and 3.69 µM under setting [2].

On to `CN1CCN(C2=Nc3cc(Cl)ccc3Nc3ccccc32)CC1` [S2459], for which the IC50 cell viability runs as follows: under setting [1], 18.9 µM; under setting [2], 18 µM.

`Cc1ccc(NC(=O)c2ccc(CN3CCN(C)CC3)cc2)cc1Nc1nccc(-c2cccnc2)n1` [S2475]: the IC50 cell viability was 6.98 µM under setting [1] and 6.56 µM under setting [2].

For the compound `CCC(C)n1ncn(-c2ccc(N3CCN(c4ccc(OCC5COC(Cn6cncn6)(c6ccc(Cl)cc6Cl)O5)cc4)CC3)cc2)c1=O` (centres undefined) [S2476], the IC50 cell viability was 22.1 µM under setting [1] and 23 µM under setting [2].

For the compound `O=C1c2c(O)ccc(O)c2C(=O)c2c(NCCNCCO)ccc(NCCNCCO)c21` [S2485], the IC50 cell viability under setting [1] is 3.55 µM and the IC50 cell viability under setting [2] was 3.77 µM.

`COc1c(C)c2c(c(O)c1C/C=C(\C)CCC(=O)O)C(=O)OC2` [S2487] yielded an IC50 cell viability under setting [1] of 10.9 µM and an IC50 cell viability under setting [2] of 9.95 µM.

The compound `CC(C)(C)NCC(O)c1ccc(O)c(CO)c1` (centres undefined) [S2507] came in with an IC50 cell viability under setting [1] of 4.57 µM and an IC50 cell viability under setting [2] of 4.1 µM.

As for `Cc1cccc(C)c1NC1=NCCCS1` [S2516], the IC50 cell viability runs as follows: under setting [1], 15.3 µM; under setting [2], 14.1 µM.

With `Cc1ccc(O)c([C@H](CCN(C(C)C)C(C)C)c2ccccc2)c1` [S2550], the IC50 cell viability under setting [1] stood at 10.2 µM and the IC50 cell viability under setting [2] worked out at 9.8 µM.

In the case of `CN(CCOc1ccc(CC2SC(=O)NC2=O)cc1)c1ccccn1` (centres undefined) [S2556], the IC50 cell viability was 8.62 µM under setting [1] and 7.63 µM under setting [2].

As for `CC(=O)O[C@]1(C(C)=O)CC[C@H]2[C@@H]3C[C@H](C)C4=CC(=O)CC[C@]4(C)[C@H]3CC[C@@]21C` [S2567], the IC50 cell viability is 10.2 µM under setting [1] and 8.9 µM under setting [2].

`CCc1ccc(CCOc2ccc(CC3SC(=O)NC3=O)cc2)nc1` (centres undefined) [S2590] returned an IC50 cell viability under setting [1] of 2.72 µM and an IC50 cell viability under setting [2] of 3.16 µM.

`Cc1ccccc1C(=O)Nc1ccc(C(=O)N2CCCC(O)c3cc(Cl)ccc32)c(C)c1` (centres undefined) [S2593]: the IC50 cell viability is 3.68 µM under setting [1] and 3.47 µM under setting [2].

With `CC#C[C@]1(O)CC[C@H]2[C@@H]3CCC4=CC(=O)CCC4=C3[C@@H](c3ccc(N(C)C)cc3)C[C@@]21C` [S2606], the IC50 cell viability reads like this: under setting [1], 9.08 µM; under setting [2], 8.71 µM.

With `COc1ncc(-c2ccc3nccc(-c4ccnnc4)c3c2)cc1NS(=O)(=O)c1ccc(F)cc1F` [S2658], the IC50 cell viability is, setting by setting: under setting [1], 8.98 µM; under setting [2], 8.74 µM.

Regarding `CC(=O)Nc1cccc(-n2c(=O)n(C3CC3)c(=O)c3c(Nc4ccc(I)cc4F)n(C)c(=O)c(C)c32)c1` [S2673], the IC50 cell viability reads like this: under setting [1], 23.9 µM; under setting [2], 21.9 µM.

On to `C=CC(=O)N1CCC[C@@H](n2nc(-c3ccc(Oc4ccccc4)cc3)c3c(N)ncnc32)C1` [S2680], for which the IC50 cell viability worked out at 53.1 µM under setting [1] and 52.4 µM under setting [2].

Consider `COc1cc2ncnc(Nc3ccc(F)c(Cl)c3)c2cc1NC(=O)/C=C/CN1CCCCC1` [S2727], for which the IC50 cell viability reads like this: under setting [1], 30.1 µM; under setting [2], 29.6 µM.

Compound `CC1(COc2ccc3c(c2)ncn3-c2ccc3cccc(N4CCC(N)CC4)c3n2)COC1` [S2730] gave an IC50 cell viability under setting [1] of 13.2 µM and an IC50 cell viability under setting [2] of 12.9 µM.

On to `Cc1cnc(Nc2ccc(OCCN3CCCC3)cc2)nc1Nc1cccc(S(=O)(=O)NC(C)(C)C)c1` [S2736], for which the IC50 cell viability is, setting by setting: under setting [1], 14.5 µM; under setting [2], 13.5 µM.

Turning to `Cc1ccc([C@@H]2O[C@H](CO)[C@@H](O)[C@H](O)[C@H]2O)cc1Cc1ccc(-c2ccc(F)cc2)s1` [S2760], the IC50 cell viability by setting is: under setting [1], 21.9 µM; under setting [2], 21.6 µM.

Regarding `C[C@@H]1CCN(C(=O)CC#N)C[C@@H]1N(C)c1ncnc2[nH]ccc12` [S2789], the IC50 cell viability is 2.19 µM under setting [1] and 2.38 µM under setting [2].

Take `CN1CCN(c2nc(C3=C(c4c[nH]c5ccccc45)C(=O)NC3=O)c3ccccc3n2)CC1` [S2791]: the IC50 cell viability runs as follows: under setting [1], 22.1 µM; under setting [2], 20.1 µM.

Regarding `O=c1sn(-c2cccc3ccccc23)c(=O)n1Cc1ccccc1` [S2823], the IC50 cell viability is 17.9 µM under setting [1] and 17.7 µM under setting [2].

Turning to `N#CC[C@H](C1CCCC1)n1cc(-c2ncnc3[nH]ccc23)cn1` [S2902], the IC50 cell viability reads like this: under setting [1], 19.6 µM; under setting [2], 17.9 µM.

In the case of `Cc1cc(C)c2c(c1)[C@@H](N(Cc1cc(C(F)(F)F)cc(C(F)(F)F)c1)c1nnn(C)n1)CCCN2C[C@H]1CC[C@H](C(=O)O)CC1` [S2925], the IC50 cell viability under setting [1] was found to be 7.47 µM and the IC50 cell viability under setting [2] is 5.94 µM.

For the compound `Cc1ccc(Nc2nccc(N(C)c3ccc4c(C)n(C)nc4c3)n2)cc1S(N)(=O)=O` [S3012], the IC50 cell viability came to 14 µM under setting [1] and 12.6 µM under setting [2].

Turning to `Cc1c(C(=O)NN2CCCCC2)nn(-c2ccc(Cl)cc2Cl)c1-c1ccc(Cl)cc1` [S3021], the IC50 cell viability is, setting by setting: under setting [1], 19 µM; under setting [2], 17.7 µM.

For `COc1cccc2c1C(=O)c1c(O)c3c(c(O)c1C2=O)C[C@@](O)(C(C)=O)C[C@@H]3O[C@H]1C[C@H](N)[C@H](O)[C@H](C)O1` [S3035], the IC50 cell viability came to 3.36 µM under setting [1] and 3.39 µM under setting [2].

Consider `CC(=O)OCC(=O)[C@@]1(O)[C@H](C)C[C@H]2[C@@H]3CCC4=CC(=O)C=C[C@]4(C)[C@@]3(F)[C@@H](O)C[C@@]21C` [S3124], for which the IC50 cell viability reads like this: under setting [1], 51.2 µM; under setting [2], 49.6 µM.

Consider `CCN(CC)C(=O)/C(C#N)=C/c1cc(O)c(O)c([N+](=O)[O-])c1` [S3147], for which the IC50 cell viability turned out to be 3.57 µM under setting [1] and 3.44 µM under setting [2].

Consider `O=C1CN2Cc3c(ccc(Cl)c3Cl)N=C2N1` [S3172], for which the IC50 cell viability was determined as 8.82 µM under setting [1] and 8.26 µM under setting [2].

`COc1cc2nccc(Oc3ccc(NC(=O)C4(C(=O)Nc5ccc(F)cc5)CC4)cc3)c2cc1OC` [S4001] had an IC50 cell viability under setting [1] of 5.3 µM and an IC50 cell viability under setting [2] of 4.97 µM.

Regarding `N[C@@H](CC(=O)N1CCn2c(nnc2C(F)(F)F)C1)Cc1cc(F)c(F)cc1F` [S4002], the IC50 cell viability under setting [1] turned out to be 21.9 µM and the IC50 cell viability under setting [2] stood at 21.2 µM.

As to `Nc1nc(CC(=O)Nc2ccc(CCNC[C@H](O)c3ccccc3)cc2)cs1` [S4009], the IC50 cell viability under setting [1] worked out at 27 µM and the IC50 cell viability under setting [2] stood at 23.9 µM.

In the case of `Nc1ccc(C(=O)O)c(O)c1` [S4073], the IC50 cell viability was found to be 8.25 µM under setting [1] and 7.73 µM under setting [2].

Consider `CCC1=C[C@@H]2CN(C1)Cc1c([nH]c3ccccc13)[C@@](C(=O)OC)(c1cc3c(cc1OC)N(C)[C@H]1[C@@](O)(C(=O)OC)[C@H](OC(C)=O)[C@]4(CC)C=CCN5CC[C@]31[C@@H]54)C2` [S4269], for which the IC50 cell viability is, setting by setting: under setting [1], 3.46 µM; under setting [2], 3.12 µM.

For `O=C(O)CCCc1ccc(N(CCCl)CCCl)cc1` [S4288], the IC50 cell viability under setting [1] is 21.7 µM and the IC50 cell viability under setting [2] was 19.3 µM.

In turn, `CC[C@H](NC(=O)[C@H](C)NC)C(=O)N1C[C@@H](O)C[C@H]1Cc1c(-c2[nH]c3cc(F)ccc3c2C[C@@H]2C[C@H](O)CN2C(=O)[C@H](CC)NC(=O)[C@H](C)NC)[nH]c2cc(F)ccc12` [S7015] came in with an IC50 cell viability under setting [1] of 21.9 µM and an IC50 cell viability under setting [2] of 20.3 µM.

As to `C=CC(=O)Nc1cc(Nc2nccc(-c3cn(C)c4ccccc34)n2)c(OC)cc1N(C)CCN(C)C` [S7297], the IC50 cell viability is 11.4 µM under setting [1] and 9.5 µM under setting [2].

`CC1(C)CCC(CN2CCN(c3ccc(C(=O)NS(=O)(=O)c4ccc(NCC5CCOCC5)c([N+](=O)[O-])c4)c(Oc4cnc5[nH]ccc5c4)c3)CC2)=C(c2ccc(Cl)cc2)C1` [S8048] returned an IC50 cell viability under setting [1] of 13.1 µM and an IC50 cell viability under setting [2] of 12.1 µM.
